Values of other authors, collected in patent US20210347751A1, “METHOD FOR EFFICIENT EXTRACTION OF PLANT ANTHOCYANIDIN” (priority 2018, published 2021).
Where two headings read alike, the source gives them in different places.

How the values were obtained:
[1] = in vivo

Row | Compound | Water solubility (10° C.) | Water solubility (20° C.) | Water solubility (30° C.) | Water solubility (40° C.) | Water solubility (60° C.) | Water solubility (70° C.) | Water solubility (80° C.) | Water solubility (90° C.) | Water solubility (100° C.) | bioavailability in the human body [1]
1 | [Cl-].[K+] [potassium chloride] | 31.2 gram/100 g of water | 34.2 gram/100 g of water | 37.2 gram/100 g of water | 40.1 gram/100 g of water | 45.8 gram/100 g of water | 48.8 gram/100 g of water | 51.3 gram/100 g of water | 53.9 gram/100 g of water | 56.3 gram/100 g of water | –
2 | Anthocyanins | – | – | – | – | – | – | – | – | – | almost zero
